Laboratory results from EP4324461A1, “(E)-N-CINAMOYLAMINOALKANOLES WITH MELANOGENESIS INHIBITORY ACTIVITY” (UNIWERSYTET JAGIELLONSKI, priority 2022, dated 2024).

What was measured:
Primary melanocytes [1] = assay: Safety, MTT test in primary melanocytes; assay type: cell-based; conditions: 48 hours
Procedure: (§1) In order to test the safety of the compounds, both normal human cells were used: keratinocytes (HaCaT), fibroblasts (BJ), primary melanocytes that occur in the skin, as well as human cancer cells: the hepatocarcinoma line HepG2 and the neuroblastoma line SH-SY5Y, which are considered a model for the assessment of hepatocytotoxicity and neurocytotoxicity. The concentrations of the tested compounds in the range of 250-100 µM were used in the studies. The cell lines used in the research were purchased from the American Type Culture Collection (ATCC) and were cultured in media recommended by the manufacturer with the addition of FBS and antibiotics in an incubator ensuring appropriate culture conditions, i.e. humidity, temperature and CO2 concentration. Cells were seeded into multiwell plates and incubated with the test compounds for 48 hours. After this time, MTT and LDH tests were performed to assess cell viability. The MTT test is based on the ability to transform the substrate: [3-(4,5-dimethyl-2-thiazolyl)-2,5-diphenyl-2H-tetrazolium bromide into a colored product only by living cells. The absorbance at 570 nm, which corresponds to the absorption maximum for the product, is directly proportional to cell viability. The LDH test is based on testing the activity of the enzyme lactate dehydrogenase in the culture medium, which is released from cells as a result of damage to the cell membrane, e.g. as a result of cell death. Triton X-100 was used as a positive control in the test. The determination is colorimetric, the substrate is transformed by the released enzyme into a colored product, an increase in absorbance indicates a larger amount of the released enzyme, and thus confirms greater damage to cell membranes. Tables 7 and 8 present the results obtained, which correspond to the viability of cells incubated with the compounds in relation to the viability of cells constituting a control sample, i.e. incubated with the solvent (DMSO) at the same concentration as in the case of the groups tested in the MTT test or in relation to the results obtained for the Triton X-100 positive control in the LDH test. They indicate that the compounds are safe at the concentrations tested. Table 7. Viability of tested normal human cell lines: keratinocytes (HaCaT), fibroblasts (BJ) and primary melanocytes after incubation with the tested compounds - determination in the MTT test (% of solvent control ± SD) and LDH (percentage of positive control - Triton X-100.

S. typhimurium TA1537 = assay: Ames microplate test, TA1537; assay type: cell-based, Salmonella typhimurium; conditions: without S9;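 also: reference level is the mean solvent-control yellow wells plus SD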
Procedure: (§2) Bacteria were grown overnight in growth medium.
(§3) Table 9. Ames microplate test results.

Hepatocarcinoma HepG2 [2] = assay: Safety, LDH test in HepG2; assay type: cell-based; conditions: 48 hours, positive control Triton X-100
Procedure: as §1

Keratinocytes (HaCaT) = assay: Safety, MTT test in keratinocytes; assay type: cell-based; conditions: 48 hours
Procedure: as §1

neuroblastoma SH-SY5Y = assay: Safety, LDH test in SH-SY5Y; assay type: cell-based; conditions: 48 hours, positive control Triton X-100
Procedure: as §1

Fibroblasts (BJ) [3] = assay: Safety, LDH test in fibroblasts; assay type: cell-based; conditions: 48 hours, positive control Triton X-100
Procedure: as §1

E. coli WP2 = assay: Ames microplate test, E. coli WP2; conditions: without S9;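 also: bacteria treated 90 min at 37 °C in 24-well plates, then indicator medium dispensed to 384-well plates and incubated 48 h before yellow-well counting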
Procedure: The study used the Ames microplate test (Ames MPF™ Penta 2 by Xenometrix, Allschwil, Switzerland). Growth medium, exposure medium, indicator medium, positive controls, hepatic microsomal fraction, NADP, glucose-6-phosphate, Salmonella typhimurium and Escherichia coli strains were components of the purchased experimental kit. Bacteria were grown overnight in growth medium. They were then exposed to the test compound at the appropriate concentration in exposure medium without or with the rat microsomal fraction S9 in 24-well plates for 90 min at 37 °C with shaking. Then, indicator medium was added to the wells and pipetted into 384-well plates, which were incubated for 48 hours at 37 °C without shaking. Results were assessed by counting the wells in which the medium turned yellow for each experimental condition.

Primary melanocytes [4] = assay: Safety, LDH test in primary melanocytes; assay type: cell-based; conditions: 48 hours, positive control Triton X-100
Procedure: as §1

Fibroblasts (BJ) [5] = assay: Safety, MTT test in fibroblasts; assay type: cell-based; conditions: 48 hours
Procedure: as §1

S. typhimurium TA98 = assay: Ames microplate test, TA98; assay type: cell-based, Salmonella typhimurium; conditions: without S9;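 also: reference level is the mean solvent-control yellow wells plus SD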
Procedure: as §2, §3

Hepatocarcinoma HepG2 [6] = assay: Safety, MTT test in HepG2; assay type: cell-based; conditions: 48 hours
Procedure: as §1

SMILES: Cc1ccc(/C=C/C(=O)NCCCCCO)cc1 [H-415/21, (2E)-N-(5-hydroxypentyl)-3-(4-methylphenyl)prop-2-enamide]
- Primary melanocytes MTT (Primary melanocytes [1]; 100 µM): 103.27±1.88 % of solvent control
- Primary melanocytes MTT (Primary melanocytes [1]; 150 µM): 99.89±2.43 % of solvent control
- Primary melanocytes MTT (Primary melanocytes [1]; 200 µM): 94.81±2.92 % of solvent control
- Primary melanocytes MTT (Primary melanocytes [1]; 250 µM): 87.64±1.44 % of solvent control
- Increase in the number of yellow wells compared to the reference level (S. typhimurium TA1537; 0.5 mM): 0.33
- Increase in the number of yellow wells compared to the reference level (S. typhimurium TA1537; 1.0 mM): 0.33
- Increase in the number of yellow wells compared to the reference level (S. typhimurium TA1537; 2.0 mM): 0.00
- Hepatocarcinoma HepG2 LDH (Hepatocarcinoma HepG2 [2]; 100 µM): 3.90 percentage of positive control
- Hepatocarcinoma HepG2 LDH (Hepatocarcinoma HepG2 [2]; 150 µM): 7.24 percentage of positive control
- Hepatocarcinoma HepG2 LDH (Hepatocarcinoma HepG2 [2]; 200 µM): 8.92 percentage of positive control
- Hepatocarcinoma HepG2 LDH (Hepatocarcinoma HepG2 [2]; 250 µM): 15.47 percentage of positive control
- Keratinocytes (HaCaT) MTT (Keratinocytes (HaCaT); 100 µM): 101.11±2.03 % of solvent control
- Keratinocytes (HaCaT) MTT (Keratinocytes (HaCaT); 150 µM): 101.78±2.32 % of solvent control
- Keratinocytes (HaCaT) MTT (Keratinocytes (HaCaT); 200 µM): 100.88±1.40 % of solvent control
- Keratinocytes (HaCaT) MTT (Keratinocytes (HaCaT); 250 µM): 88.54±3.74 % of solvent control
- Neuroblastoma SH-SYSY LDH (neuroblastoma SH-SY5Y; 100 µM): 3.90 percentage of positive control
- Neuroblastoma SH-SYSY LDH (neuroblastoma SH-SY5Y; 150 µM): 7.24 percentage of positive control
- Neuroblastoma SH-SYSY LDH (neuroblastoma SH-SY5Y; 200 µM): 8.92 percentage of positive control
- Neuroblastoma SH-SYSY LDH (neuroblastoma SH-SY5Y; 250 µM): 10.55 percentage of positive control
- Fibroblasts (BJ) LDH (Fibroblasts (BJ) [3]; 100 µM): 8.81 percentage of positive control
- Fibroblasts (BJ) LDH (Fibroblasts (BJ) [3]; 150 µM): 8.75 percentage of positive control
- Fibroblasts (BJ) LDH (Fibroblasts (BJ) [3]; 200 µM): 9.82 percentage of positive control
- Fibroblasts (BJ) LDH (Fibroblasts (BJ) [3]; 250 µM): 16.63 percentage of positive control
- Increase in the number of yellow wells compared to the reference level (E. coli WP2; 0.5 mM): 0.64
- Increase in the number of yellow wells compared to the reference level (E. coli WP2; 1.0 mM): 0.40
- Increase in the number of yellow wells compared to the reference level (E. coli WP2; 2.0 mM): 0.95
- Primary melanocytes LDH (Primary melanocytes [4]; 100 µM): 4.22 percentage of positive control
- Primary melanocytes LDH (Primary melanocytes [4]; 150 µM): 6.01 percentage of positive control
- Primary melanocytes LDH (Primary melanocytes [4]; 200 µM): 8.34 percentage of positive control
- Primary melanocytes LDH (Primary melanocytes [4]; 250 µM): 14.94 percentage of positive control
- Fibroblasts (BJ) MTT (Fibroblasts (BJ) [5]; 100 µM): 102.12±2.71 % of solvent control
- Fibroblasts (BJ) MTT (Fibroblasts (BJ) [5]; 150 µM): 101.92±2.88 % of solvent control
- Fibroblasts (BJ) MTT (Fibroblasts (BJ) [5]; 200 µM): 96.13±3.64 % of solvent control
- Fibroblasts (BJ) MTT (Fibroblasts (BJ) [5]; 250 µM): 92.86±4.30 % of solvent control
- Increase in the number of yellow wells compared to the reference level (S. typhimurium TA98; 0.5 mM): 0.47
- Increase in the number of yellow wells compared to the reference level (S. typhimurium TA98; 1.0 mM): 0.24
- Increase in the number of yellow wells compared to the reference level (S. typhimurium TA98; 2.0 mM): 0.35
- Hepatocarcinoma HepG2 MTT (Hepatocarcinoma HepG2 [6]; 100 µM): 100.32±1.75 % of solvent control
- Hepatocarcinoma HepG2 MTT (Hepatocarcinoma HepG2 [6]; 150 µM): 99.54±5.74 % of solvent control
- Hepatocarcinoma HepG2 MTT (Hepatocarcinoma HepG2 [6]; 200 µM): 100.53±3.98 % of solvent control
- Hepatocarcinoma HepG2 MTT (Hepatocarcinoma HepG2 [6]; 250 µM): 98.90±4.21 % of solvent control

SMILES: O=C(/C=C/c1ccc(Cl)cc1)NCCO [H-427/21, (2E)-3-(4-chlorophenyl)-N-(2-hydroxyethyl)prop-2-enamide]
- Primary melanocytes MTT (Primary melanocytes [1]; 100 µM): 102.20±2.24 % of solvent control
- Primary melanocytes MTT (Primary melanocytes [1]; 150 µM): 100.57±2.18 % of solvent control
- Primary melanocytes MTT (Primary melanocytes [1]; 200 µM): 93.78±2.18 % of solvent control
- Primary melanocytes MTT (Primary melanocytes [1]; 250 µM): 85.19±2.03 % of solvent control
- Hepatocarcinoma HepG2 LDH (Hepatocarcinoma HepG2 [2]; 100 µM): 3.09 percentage of positive control
- Hepatocarcinoma HepG2 LDH (Hepatocarcinoma HepG2 [2]; 150 µM): 4.45 percentage of positive control
- Hepatocarcinoma HepG2 LDH (Hepatocarcinoma HepG2 [2]; 200 µM): 5.98 percentage of positive control
- Hepatocarcinoma HepG2 LDH (Hepatocarcinoma HepG2 [2]; 250 µM): 13.51 percentage of positive control
- Keratinocytes (HaCaT) MTT (Keratinocytes (HaCaT); 100 µM): 100.47±3.65 % of solvent control
- Keratinocytes (HaCaT) MTT (Keratinocytes (HaCaT); 150 µM): 98.15±2.63 % of solvent control
- Keratinocytes (HaCaT) MTT (Keratinocytes (HaCaT); 200 µM): 99.24±3.00 % of solvent control
- Keratinocytes (HaCaT) MTT (Keratinocytes (HaCaT); 250 µM): 89.94±4.66 % of solvent control
- Neuroblastoma SH-SYSY LDH (neuroblastoma SH-SY5Y; 100 µM): 3.09 percentage of positive control
- Neuroblastoma SH-SYSY LDH (neuroblastoma SH-SY5Y; 150 µM): 4.45 percentage of positive control
- Neuroblastoma SH-SYSY LDH (neuroblastoma SH-SY5Y; 200 µM): 5.98 percentage of positive control
- Neuroblastoma SH-SYSY LDH (neuroblastoma SH-SY5Y; 250 µM): 8.87 percentage of positive control
- Fibroblasts (BJ) LDH (Fibroblasts (BJ) [3]; 100 µM): 2.75 percentage of positive control
- Fibroblasts (BJ) LDH (Fibroblasts (BJ) [3]; 150 µM): 5.92 percentage of positive control
- Fibroblasts (BJ) LDH (Fibroblasts (BJ) [3]; 200 µM): 9.00 percentage of positive control
- Fibroblasts (BJ) LDH (Fibroblasts (BJ) [3]; 250 µM): 17.32 percentage of positive control
- Primary melanocytes LDH (Primary melanocytes [4]; 100 µM): 3.93 percentage of positive control
- Primary melanocytes LDH (Primary melanocytes [4]; 150 µM): 4.44 percentage of positive control
- Primary melanocytes LDH (Primary melanocytes [4]; 200 µM): 4.31 percentage of positive control
- Primary melanocytes LDH (Primary melanocytes [4]; 250 µM): 15.01 percentage of positive control
- Fibroblasts (BJ) MTT (Fibroblasts (BJ) [5]; 100 µM): 101.82±3.99 % of solvent control
- Fibroblasts (BJ) MTT (Fibroblasts (BJ) [5]; 150 µM): 100.76±3.34 % of solvent control
- Fibroblasts (BJ) MTT (Fibroblasts (BJ) [5]; 200 µM): 100.37±3.92 % of solvent control
- Fibroblasts (BJ) MTT (Fibroblasts (BJ) [5]; 250 µM): 98.13±2.81 % of solvent control
- Hepatocarcinoma HepG2 MTT (Hepatocarcinoma HepG2 [6]; 100 µM): 99.61±4.37 % of solvent control
- Hepatocarcinoma HepG2 MTT (Hepatocarcinoma HepG2 [6]; 150 µM): 98.44±3.94 % of solvent control
- Hepatocarcinoma HepG2 MTT (Hepatocarcinoma HepG2 [6]; 200 µM): 97.07±4.00 % of solvent control
- Hepatocarcinoma HepG2 MTT (Hepatocarcinoma HepG2 [6]; 250 µM): 100.08±10.58 % of solvent control
